In ChEMBL document CHEMBL5257025, “Artemisinin-Derived Dimers: Potent Antimalarial and Anticancer Agents” (J Med Chem, 2016):
pIC50: −log10 of the molar value.

Key:
MDA-MB-231 = assay: Antiproliferative activity against human MDA-MB-231 cells assessed as reduction in cell viability measured after 48 hrs by MTT assay; type: functional, cell-based; conditions: MDA-MB-231, 48 h
BT-474 = assay: Antiproliferative activity against human BT-474 cells assessed as reduction in cell growth measured after 72 hrs by MTT assay; type: functional, cell-based; conditions: BT-474, 72 h
Plasmodium falciparum [1] = assay: Antimalarial activity against Plasmodium falciparum NF54 assessed as reduction in cell growth; type: functional, organism-based
HL-60 = assay: Growth inhibition of human HL-60 cells assessed as cell growth inhibition measured after 48 hrs by MTT assay; type: functional
HeLa = assay: Antiproliferative activity against human Hela cells assessed as cell growth inhibition measured after 48 hrs by MTT assay; type: functional, cell-based
HCT-116 = assay: Antiproliferative activity against human HCT-116 cells assessed as growth after 48 hrs by MTT assay; type: functional, cell-based; conditions: HCT-116, 48 h
[2] = Antiproliferative activity against human 1205Lu cells assessed as reduction in cell growth; type: functional, cell-based
[3] = Cytotoxicity against human HFF cells assessed as cell growth inhibition measured after 48 hrs by MTT assay; type: toxicity, cell-based
TRAMP-C1A = assay: Cytotoxicity against mouse TRAMP-C1A cells assessed as inhibition of cell growth measured after 72 hrs by MTT assay; type: functional, cell-based
C2D cell line = assay: Cytotoxicity against mouse C2D cell line assessed as inhibition of cell growth measured after 72 hrs by MTT assay; type: functional, cell-based
C2G cell line = assay: Cytotoxicity against mouse C2G cells assessed as inhibition of cell growth measured after 72 hrs by MTT assay; type: functional, cell-based
BT-549 = assay: Antiproliferative activity against human BT-549 cells assessed as reduction in cell viability incubated for 48 hrs by MTT assay; type: functional, cell-based; conditions: BT-549, 48 h
[4] = Cytotoxicity against African green monkey Vero cells; type: toxicity, cell-based; conditions: chlorocebus sabaeus, read-out: TC50 (the source's name)
Plasmodium falciparum [5] = assay: Antimalarial activity against Plasmodium falciparum K1 assessed as inhibition of malarial growth; type: functional, organism-based
KB = assay: Antiproliferative activity against human KB cells assessed as reduction in cell viability incubated for 48 hrs by MTT assay; type: functional, cell-based
[6] = Antiproliferative activity against human BC cells assessed as growth inhibition; type: functional, cell-based
TRAMP-C2H = assay: Cytotoxicity against mouse TRAMP-C2H cells assessed as inhibition of cell growth measured after 72 hs by MTT assay; type: functional, cell-based
Plasmodium falciparum [7] = assay: Antiplasmodial activity against Plasmodium falciparum NF54 assessed as reduction in malarial growth; type: functional, organism-based
Plasmodium falciparum [8] = assay: microbe, parasite or virus in culture; conditions: Dd2
Description: Antiplasmodial activity against Plasmodium falciparum Dd2 assessed as inhibition of parasitic growth

Plasmodium falciparum [9] = assay: Antimalarial activity against Plasmodium falciparum HB3 assessed as inhibition of malarial growth; type: functional, organism-based
Jurkat = assay: Antiproliferative activity against human Jurkat cells assessed as reduction in cell viability incubated for 48 hrs by MTT assay; type: functional, cell-based

## C[C@@H]1CC[C@H]2[C@@H](C)C(CC(CC3O[C@@H]4O[C@]5(C)CC[C@@H]6[C@@H](C)CC[C@H]([C@@H]3C)[C@]46OO5)CN3CCN(C)CC3)O[C@H]3O[C@@]4(C)CC[C@@H]1[C@]32OO4 (stereo partly drawn)
MDA-MB-231
  pIC50: 5.48
BT-474
  pIC50: 6.96

## C[C@@H]1CC[C@H]2[C@@H](C)C(CC(COC(=O)CCC(=O)O)CC3O[C@H]4O[C@@]5(C)CC[C@H]6[C@H](C)CC[C@@H]([C@H]3C)[C@@]46OO5)O[C@H]3O[C@@]4(C)CC[C@@H]1[C@]32OO4 (stereo partly drawn)
Plasmodium falciparum [1]
  pIC50: 8.70
MDA-MB-231
  pIC50: 4.49
BT-474
  pIC50: 6.41

## C[C@@H]1CC[C@H]2[C@@H](C)C(CCN3CCC(C4CCN(CCC5O[C@H]6O[C@@]7(C)CC[C@H]8[C@H](C)CC[C@@H]([C@H]5C)[C@@]68OO7)CC4)CC3)O[C@H]3O[C@@]4(C)CC[C@@H]1[C@]32OO4 (stereo partly drawn)
HL-60
  GI50: 400 nM

## C[C@@H]1CC[C@H]2[C@@H](C)C(CC(COP(=O)(Oc3ccccc3)Oc3ccccc3)CC3O[C@@H]4O[C@]5(C)CC[C@@H]6[C@@H](C)CC[C@H]([C@@H]3C)[C@]46OO5)O[C@H]3O[C@@]4(C)CC[C@@H]1[C@]32OO4 (stereo partly drawn)
HeLa
  pIC50: 6.72
HCT-116
  pIC50: 7.40
[2]
  pIC50: 7.22
[3]
  IC50 at 48 h: 55800 nM

## C[C@@H]1CC[C@H]2[C@@H](C)C(CC(CC3O[C@@H]4O[C@]5(C)CC[C@@H]6[C@@H](C)CC[C@H]([C@@H]3C)[C@]46OO5)C(=O)O)O[C@H]3O[C@@]4(C)CC[C@@H]1[C@]32OO4 (stereo partly drawn)
Plasmodium falciparum [1]
  pIC50: 8.62
TRAMP-C1A
  pIC50: 6.80
C2D cell line
  pIC50: 6.64
C2G cell line
  pIC50: 6.87

## C[C@@H]1CC[C@H]2[C@@H](C)C(CC(CC3O[C@@H]4O[C@]5(C)CC[C@@H]6[C@@H](C)CC[C@H]([C@@H]3C)[C@]46OO5)CN3CCN(c4ccccn4)CC3)O[C@H]3O[C@@]4(C)CC[C@@H]1[C@]32OO4 (stereo partly drawn)
MDA-MB-231
  pIC50: 5.30
BT-474
  pIC50: 7.66

## C[C@@H]1CC[C@H]2[C@@H](C)C(OCC(O)COC3O[C@@H]4O[C@]5(C)CC[C@@H]6[C@@H](C)CC[C@H]([C@@H]3C)[C@]46OO5)O[C@H]3O[C@@]4(C)CC[C@@H]1[C@]32OO4 (stereo partly drawn)
BT-549
  pIC50: 6.32

## CC(=O)N1CCN(CC(CC2O[C@@H]3O[C@]4(C)CC[C@@H]5[C@@H](C)CC[C@H]([C@@H]2C)[C@]35OO4)CC2O[C@H]3O[C@@]4(C)CC[C@H]5[C@H](C)CC[C@@H]([C@H]2C)[C@@]35OO4)CC1 (stereo partly drawn)
MDA-MB-231
  pIC50: 5.10
BT-474
  pIC50: 7.22

## C[C@H]1[C@H](CCCCC[C@H]2O[C@H]3O[C@@]4(C)CC[C@H]5[C@H](C)CC[C@@H]([C@H]2C)[C@@]35OO4)O[C@H]2O[C@@]3(C)CC[C@H]4[C@H](C)CC[C@@H]1[C@@]24OO3
[4]
  CC50: 2800 nM
Plasmodium falciparum [5]
  pIC50: 9.04
KB
  pIC50: 6.12
[6]
  pIC50: 6.44

## C[C@@H]1CC[C@H]2[C@@H](C)C(CC(CC3O[C@@H]4O[C@]5(C)CC[C@@H]6[C@@H](C)CC[C@H]([C@@H]3C)[C@]46OO5)CN3CCN(c4cccnc4)CC3)O[C@H]3O[C@@]4(C)CC[C@@H]1[C@]32OO4 (stereo partly drawn)
MDA-MB-231
  pIC50: 5.00
BT-474
  pIC50: 7.15

## C[C@@H]1CC[C@H]2[C@@H](C)C(CC(CC3O[C@@H]4O[C@]5(C)CC[C@@H]6[C@@H](C)CC[C@H]([C@@H]3C)[C@]46OO5)C(=O)NN)O[C@H]3O[C@@]4(C)CC[C@@H]1[C@]32OO4 (stereo partly drawn)
BT-474
  pIC50: 7.89

## Nc1ccn([C@@H]2O[C@H](CO)[C@@H](O)C2(F)F)c(=O)n1 [GEMCITABINE]
TRAMP-C1A
  pIC50: 8.43
C2D cell line
  pIC50: 8.43
C2G cell line
  pIC50: 8.43
TRAMP-C2H
  pIC50: 8.43

## C[C@@H]1CC[C@H]2[C@H](C[C@]3(Cc4ccc(F)cc4)O[C@H]4O[C@@]5(C)CC[C@H]6[C@H](C)CC[C@@H]([C@H]3C)[C@@]46OO5)C(=O)O[C@H]3O[C@@]4(C)CC[C@@H]1[C@]32OO4
[4]
  CC50: 1100 nM
KB
  pIC50: 5.11
[6]
  pIC50: 5.13

## C[C@@H]1CC[C@H]2[C@H](C[C@]3(CCCCc4ccccc4)O[C@H]4O[C@@]5(C)CC[C@H]6[C@H](C)CC[C@@H]([C@H]3C)[C@@]46OO5)C(=O)O[C@H]3O[C@@]4(C)CC[C@@H]1[C@]32OO4
[4]
  CC50: 2400 nM
Plasmodium falciparum [7]
  pIC50: 8.47
KB
  pIC50: 5.24
[6]
  pIC50: 5.92

## C[C@@H]1CC[C@H]2[C@@H](C)C(O)O[C@H]3O[C@]4(C)CC[C@@H]1[C@]32O4 (stereo partly drawn)
Plasmodium falciparum [8]
  pIC50: 5.56

## C[C@@H]1CC[C@H]2[C@@H](C)C(CCCOP(=O)(OCCC3O[C@H]4O[C@@]5(C)CC[C@H]6[C@H](C)CC[C@@H]([C@H]3C)[C@@]46OO5)Oc3ccccc3)O[C@H]3O[C@@]4(C)CC[C@@H]1[C@]32OO4 (stereo partly drawn)
Plasmodium falciparum [9]
  pIC50: 9.74
Plasmodium falciparum [5]
  pIC50: 9.30
Jurkat
  pIC50: 4.88
HL-60
  GI50: 241 nM

## C[C@@H]1CC[C@H]2[C@@H](C)C(CC(CC3O[C@@H]4O[C@]5(C)CC[C@@H]6[C@@H](C)CC[C@H]([C@@H]3C)[C@]46OO5)CS(=O)(=O)c3ccc(CO)cc3)O[C@H]3O[C@@]4(C)CC[C@@H]1[C@]32OO4 (stereo partly drawn)
HeLa
  pIC50: 6.25
HCT-116
  pIC50: 7.15
[2]
  pIC50: 7.00
[3]
  IC50 at 48 h: 4900 nM

## C[C@H]1[C@H](OC(=O)CCC(=O)O)O[C@@H]2O[C@@]3(C)CC[C@H]4[C@H](C)CC[C@@H]1[C@@]24OO3 [ARTESUNATE]
HeLa
  pIC50: 5.15
HCT-116
  pIC50: 5.15
[2]
  pIC50: 5.15
[3]; time 48 hrs, read-out: TC50
  CC50 at 48 h: 717000 nM

## CCCCC[C@@]1(C[C@@H]2C(=O)O[C@H]3O[C@@]4(C)CC[C@H]5[C@H](C)CC[C@@H]2[C@@]35OO4)O[C@H]2O[C@@]3(C)CC[C@H]4[C@H](C)CC[C@@H]([C@H]1C)[C@@]24OO3
[4]
  CC50: 63000 nM
KB
  pIC50: 4.64
[6]
  pIC50: 4.44

## COP(=O)(OCCCC1O[C@H]2O[C@@]3(C)CC[C@H]4[C@H](C)CC[C@@H]([C@H]1C)[C@@]24OO3)OCCC1O[C@H]2O[C@@]3(C)CC[C@H]4[C@H](C)CC[C@@H]([C@H]1C)[C@@]24OO3 (stereo partly drawn)
Plasmodium falciparum [9]
  pIC50: 10.05
Plasmodium falciparum [5]
  pIC50: 9.70
Jurkat
  pIC50: 5.11
HL-60
  GI50: 143 nM

## C[C@H]1[C@H](CCCC[C@H]2O[C@H]3O[C@@]4(C)CC[C@H]5[C@H](C)CC[C@@H]([C@H]2C)[C@@]35OO4)O[C@H]2O[C@@]3(C)CC[C@H]4[C@H](C)CC[C@@H]1[C@@]24OO3
[4]
  CC50: 10000 nM
Plasmodium falciparum [5]
  pIC50: 8.85
KB
  pIC50: 5.74
[6]
  pIC50: 5.80

## C[C@@H]1CC[C@H]2[C@@H](C)C(CC(CC3O[C@@H]4O[C@]5(C)CC[C@@H]6[C@@H](C)CC[C@H]([C@@H]3C)[C@]46OO5)CS(=O)(=O)c3ccc(COC(=O)N(C)C)cc3)O[C@H]3O[C@@]4(C)CC[C@@H]1[C@]32OO4 (stereo partly drawn)
HeLa
  pIC50: 6.57
HCT-116
  pIC50: 7.15
[2]
  pIC50: 6.89
[3]
  IC50 at 48 h: 57500 nM

## C[C@@H]1CC[C@H]2[C@@H](C)C(CC(COC(=O)c3cc[n+]([O-])cc3)CC3O[C@H]4O[C@@]5(C)CC[C@H]6[C@H](C)CC[C@@H]([C@H]3C)[C@@]46OO5)O[C@H]3O[C@@]4(C)CC[C@@H]1[C@]32OO4 (stereo partly drawn)
Plasmodium falciparum [1]
  pIC50: 9.28
TRAMP-C1A
  pIC50: 7.07
C2D cell line
  pIC50: 7.21
C2G cell line
  pIC50: 7.32
TRAMP-C2H
  pIC50: 7.44

## C[C@@H]1CC[C@H]2[C@@H](C)C(CC(COP(=O)(O)Oc3ccccc3)CC3O[C@@H]4O[C@]5(C)CC[C@@H]6[C@@H](C)CC[C@H]([C@@H]3C)[C@]46OO5)O[C@H]3O[C@@]4(C)CC[C@@H]1[C@]32OO4 (stereo partly drawn)
HeLa
  pIC50: 4.73
HCT-116
  pIC50: 5.18
[3]
  IC50 at 48 h: 56500 nM
